Non-standard residues stand in square brackets, D forms with d. No end group written: not given here. pGlu = O=C1CC[C@@H](C(=O)O)N1
Key:
bovine CPA [1] = test: Affinity chromatography on CPA-glyoxyl-agarose (binding to immobilized CPA), MALDI-TOF read-out; conditions: heat-treated extract (100 °C, 60 min); 0.1 M Tris-HCl pH 7.2, 0.2 M NaCl
Protocol: (§1) A 50 mL aliquot of the clarified crude extract (with a protein concentration of (200 μg·mL^−1) was loaded onto a 2.0 mL bovine CPA-glyoxyl-agarose column prepared in house. The affinity resin was prepared in house as described. Before the addition of the crude extract, the affinity resin was previously equilibrated with 10 column volumes (cv) 0.1 M Tris-HCl buffer (pH 7.2) containing 0.2 M NaCl. Then, the column was washed with 5 cv of equilibration buffer. The retained proteins were eluted with two different buffers: (1) HCl solution with pH = 5.0 (2 cv) and (2) […] solution with pH = 3.0 (2 cv). The eluted fractions were adjusted immediately to pH 7.0 by adding NaOH. All the fractions that presented CPA inhibitory activity were pooled and stored at −80 °C until analysis.
(§2) For MALDI-TOF mass spectrometric analysis, samples from the different purification steps, as well as from the clarified crude extract were mixed with an equal volume of α-cyano-4-hydroxycinnamic acid (hcca) matrix solution. Previously, the samples were desalted by dialysis in 0.022 μm filters. The matrix-sample mixture was spotted onto MT 384 target plate polished steel T F from Bruker Daltonics, and the spots were evaporated to dryness at room temperature. […] The resultant tryptic peptides were dissolved in 10 μL of 0.1% CF3CO2H (v/v) an analyzed by MALDI-TOF in the presence of hcca matrix. […]

immobilized CPA [2] = test: C-terminal cleavage by immobilized CPA; set-up: species or system bovine; conditions: affinity chromatography eluate, MALDI-TOF
Protocol: as §1, §2

[3] = system: pancreatic carboxypeptidases A and B (CPA and CPB, respectively); conditions: in vitro, by pancreatic carboxypeptidases A and B; cited from earlier work
Description: (§3) A number of CKMPs function as potent protease peptide inhibitors (PPIs). Among them, the potato carboxypeptidase inhibitor (PCI) was the first CKMPs to be discovered. […] The first crystal structure of this 39 amino acid plant protease inhibitor was reported in 1980 by Rees and Liscomb. After almost 40 years of intense research in the field of proteases, only a small number of metallocarboxypept ...

[4] = system: metallocarboxypeptidases (MCPs); conditions: cited from earlier work
Description: as §3

[5] = ref 34 (Wang and co-workers, 2006); cited from earlier work
Description: as §3

adenocarcinoma cell = conditions: in vitro, acting as epidermal growth factor (EGF) antagonist; cited from earlier work
Description: as §3

immobilized CPA [6] = conditions: after binding of the inhibitor to immobilized CPA; cited from earlier work
Description: For further characterization, the initial heat-treated crude extract, the flow-through (fraction containing the non-retained peptides and proteins), and the elution from the affinity chromatography containing the final purified protein were subjected to MALDI-TOF mass spectrometry. A detailed analysis of the peaks present in the mass spectra for the initial heat-treat ...

[7] = biological target: porcine carboxypeptidases B (pCPB); test: Inhibition kinetic constant (Ki), pCPB, pre-steady-state tight-binding (Morrison) assay; format: biochemical; conditions: against pCPB
Protocol: (§4) The inhibitory properties of the purified rchuPCI against bCPA and pCPB were determined and compared with a recombinant version of the canonical PCI. The Ki values were evaluated following a pre-steady-state based protocol, according to the Morrison model for tight-binding inhibitors. […] When compared to the canonical PCI, the Ki values obtained for rchuPCI against bCPA and pCPB were about 2-fold higher than the Ki values obtained for recombinant PCI (rPCI).
(§5) The method for tight binding inhibitors was used for the Ki determination. Inhibitory assays were performed at 25 °C under equilibrium conditions ([E0]/Ki ≤ 10) with a fixed concentration of bCPA or pCPB and substrate (0.1 mM N-(4-methoxyphenylazoformyl)-Phe-OH or 0.1 mM N-(4-methoxyphenylazoformyl)-Arg-OH, respectively) in Tris-HCl buffer (pH 7.5) containing 0.2 M NaCl. Samples were pre-incubated for 15 min at RT before the addition of substrate. Then, the decrease in absorbance was measured at 340 nm in a Victor3 (Perkin Elmer, Boston, MA, USA) plate reader. Ki values were calculated by direct fitting of the fractional activities (vi/v0) to the Morrison equation and assuming a competitive inhibition modality (Equations (3) and (4)). (3) vi/v0=1−([E]T+[I]T+Kiapp)−([E]T+[I]T+Kiapp)^2−4[E]T[I]T/2[E]T (4) Ki=Kiapp/([S0/KM])+1 […]

[8] = biological target: bovine carboxypeptidases A (bCPA); test: Inhibition kinetic constant (Ki), bCPA, pre-steady-state tight-binding (Morrison) assay; format: biochemical; conditions: against bCPA
Protocol: as §4, §5

[9] = MALDI-TOF MS of heat-treated samples (thermal stability); format: physicochemical; conditions: crude extract heat-treated 60 min; MALDI-TOF linear positive mode
Protocol: (§6) Aliquots with 1.0 mL of the clarified crude extract (see Section 3.2) where incubated at 60, 70, 85 or 100 °C for 60 min. After incubation the samples were centrifuged at 14,500× g for 90 min at 4 °C to eliminate all thermally denatured proteins. Afterwards, the total protein content and the inhibitory activity of the non-treated crude extract and heat-treated samples were determined.
For MALDI-TOF mass spectrometric analysis, samples from the different purification steps, as well as from the clarified crude extract were mixed with an equal volume of α-cyano-4-hydroxycinnamic acid (hcca) matrix solution. Previously, the samples were desalted by dialysis in 0.022 μm filters. The matrix-sample mixture was spotted onto MT 384 target plate polished steel T F from Bruker Daltonics, and the spots were evaporated to dryness at room temperature. Mass spectra were acquired on a Bruker Daltonics Ultraflextreme MALDI-TOF mass spectrometer (Bruker Daltonics, Billerica, MA, USA) operating in a linear positive mode. PMF analysis was performed for the identification of nchuPCI. In brief, an in situ tryptic digestion of the tris-tricine-SDS-PAGE electrophoresis bands as performed by following a well described protocol. The resultant tryptic peptides were dissolved in 10 μL of 0.1% CF3CO2H (v/v) an analyzed by MALDI-TOF in the presence of hcca matrix. […]

bovine CPA [10] = test: CPA inhibitory activity after heat treatment (thermal stability); format: physicochemical; conditions: crude extract, 100 °C for 60 min; Bradford and CPA inhibition
Protocol: The bCPA inhibitory activity of the crude extract and the heat-treated samples was determined similarly as described above for the determination of the IC50 values. However, in this case a unique concentration of the sample was tested. bCPA inhibitory activity (%) was calculated by using the following equation:(2) Y=(ΔAbs340nm/Δt(min))potato extract/(ΔAbs340nm/Δt(min))control×100
as §6

[11] = cited from earlier work
Description: To date, a large number of CKMPs have been identified and isolated from natural sources (i.e., from arthropods, vertebrates, mollusks, fungi, plants, and so on). These molecules belong to more than 34 protein families and are involved in diverse biological functions. In animals, CKMPs are secreted peptides that function as extracellular signaling molecules involved in the regulation of important cellular functions such as cell growth or cell development. In plants, CKMPs are often involved in defense against external pathogens. Typically, the latter group functions as prote ...

calcium channel = conditions: cited from earlier work
[12] = biological target: T1, Carboxypeptidase A from bovine pancreas (bovine, UniProt P00730 111-419); test: enzyme inhibition kinetics (Morrison equation for tight-binding inhibitors); 25 °C, equilibrium conditions ([E0]/Ki <= 10), fixed bCPA or pCPB, 0.1 mM N-(4-methoxyphenylazoformyl)-Phe-OH (bCPA) or -Arg-OH (pCPB), Tris-HCl pH 7.5, 0.2 M NaCl; pre-incubated 15 min at RT; absorbance at 340 nm; competitive inhibition assumed; conditions: both partners purified
T1 construct: carboxypeptidase A from bovine pancreas; Free in solution for the Ki determinations; also called bCPA; bovine CPA; source: bought: Sigma-Aldrich (from bovine pancreas)
T1 sequence (looked up): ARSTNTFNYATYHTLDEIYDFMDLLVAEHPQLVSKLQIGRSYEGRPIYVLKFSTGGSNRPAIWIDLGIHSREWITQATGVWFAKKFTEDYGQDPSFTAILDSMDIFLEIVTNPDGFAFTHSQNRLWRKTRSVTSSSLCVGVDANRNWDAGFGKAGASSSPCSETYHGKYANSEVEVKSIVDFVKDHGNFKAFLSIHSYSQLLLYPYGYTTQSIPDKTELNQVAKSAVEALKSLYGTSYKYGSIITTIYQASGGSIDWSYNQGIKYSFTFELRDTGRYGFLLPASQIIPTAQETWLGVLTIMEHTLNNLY

[13] = biological target: T2, Carboxypeptidase B from porcine pancreas (porcine, UniProt P09955 111-416); test: as above; conditions: both partners purified
T2 construct: carboxypeptidase B from porcine pancreas; also called pCPB; porcine CPB; source: bought: Sigma-Aldrich (from porcine pancreas)
T2 sequence (looked up): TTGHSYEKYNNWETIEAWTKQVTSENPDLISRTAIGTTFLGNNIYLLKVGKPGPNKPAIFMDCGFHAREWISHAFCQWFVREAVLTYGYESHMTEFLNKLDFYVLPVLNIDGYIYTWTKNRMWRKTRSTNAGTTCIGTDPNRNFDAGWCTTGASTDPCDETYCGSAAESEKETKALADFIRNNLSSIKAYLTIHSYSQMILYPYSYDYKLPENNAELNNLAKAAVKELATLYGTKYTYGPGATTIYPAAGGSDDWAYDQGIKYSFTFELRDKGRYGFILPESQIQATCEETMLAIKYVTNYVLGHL

[14] = compared to recombinant PCI (rPCI)

Molecule: -RDPDPICNKPCKTHDDCSGAWFCQACWNSARTCGPYVG (disulfide) [IIa, chuPCI lacking the N-terminal amino acid]
- Retention by immobilized CPA (MALDI-TOF of flow-through vs initial extract) (bovine CPA [1]): clear fading of the molecular ion intensities
- C-terminal cleavage by immobilized CPA (mass shift) (immobilized CPA [2]): loss of 57 Da

Molecule: PCI: potato carboxypeptidase inhibitor, 39 amino acid plant protease inhibitor from Solanum tuberosum (QQHADPICNKPCKTHDDCSGAWFCQACWNSARTCGPYVG)
- Blocking of C-terminal cleavage (and consequent inactivation) of human EGF [3]: blocks the C-terminal cleavage
- Inhibition of metallocarboxypeptidases [4]: inhibits different enzymes within the family of metallocarboxypeptidases
- Antithrombotic action [5]: can act as an antithrombotic drug
- Inhibition of adenocarcinoma cell growth (adenocarcinoma cell): inhibit in vitro adenocarcinoma cell growth
- C-terminal cleavage by immobilized CPA (immobilized CPA [6]): a C-terminal glycine residue is usually cleaved by the immobilized CPA

Molecule: QRDPDPICNKPCKTHDDCSGAWFCQACWNSARTCGPYVG (disulfide (positions not given here)) [rchuPCI, recombinant product of mature chuPCI (39 amino acids) expressed in E. coli BL21 (DE3)]
- All Ki values determined (range in words) [7]: nanomolar range
- Ki values obtained for rchuPCI compared with rPCI (fold higher) [7, 14]: about 2 fold
- All Ki values determined (range in words) [8]: nanomolar range
- Ki values obtained for rchuPCI compared with rPCI (fold higher) [8, 14]: about 2 fold

Molecule: [pGlu]RDPDPICNKPCKTHDDCSGAWFCQACWNSARTCGPYVG (disulfide (positions not given here)) [IIIa, full-length chuPCI post-translationally modified with an N-terminal pyroglutamic acid]
- Retention by immobilized CPA (MALDI-TOF of flow-through vs initial extract) (bovine CPA [1]): clear fading of the molecular ion intensities
- C-terminal cleavage by immobilized CPA (mass shift) (immobilized CPA [2]): loss of 57 Da

Molecule: [pGlu]RDPDPICNKPCKTHDDCSGAWFCQACWNSARTCGPYVG (disulfide (positions not given here)) [native chuPCI, Churqueña]
- Heat resistance of the 4309 Da peak/miniprotein [9]: heat-resistant molecule
- Temperature stability of CPA inhibitory activity (bovine CPA [10]): high temperature stability, even after thermal treatment at 100 °C for 60 min

Molecule: kalata B1: CKMP isolated from plants (GLPVCGETCVGGTCNTPGCTCSWPVCTRN; ends and bridges not checked; also: cystine-knot disulfides, pairing not given here; UniProt P56254 89-117, looked up)
- Antibacterial and/or antifungal activities [11]: antibacterial and/or antifungal activities

Molecule: ω-conotoxin MVIIa
- Calcium channel block (calcium channel): calcium channel blocker

Molecule: QQHADPICNKPCKTHDDCSGAWFCQACWNSARTCGPYVG (natural protein, Solanum tuberosum subsp. tuberosum, UniProt P01075 1-39, looked up, also called canonical PCI) [recombinant canonical potato carboxypeptidase inhibitor (PCI)]
- Ki [12]: 4.3 ± 0.46 nM
- Ki [13]: 10.7 ± 1.17 nM

B1: recombinant chuPCI (cystine-knot metallocarboxypeptidase inhibitor from Solanum tuberosum subsp. andigenum cv. Churqueña) (natural protein)
chain: QRDPDPICNKPCKTHDDCSGAWFCQACWNSARTCGPYVG
modifications: also: N-terminal Gln partly cyclised to pyroglutamate
notes: mature chuPCI (39 amino acids) of the chuPCI precursor, S. tuberosum subsp. andigenum cv; Churqueña; Cloned in pIN-III-OmpA3 with the OmpA3 signal peptide at the N-terminus for secretion; The mass of the purified protein (4326.3 Da) fits the 39 residues without the signal peptide; Three disulfide bonds (Cys8-Cys24, Cys12-Cys27, Cys18-Cys34); also called rchuPCI; recombinant churqueña PCI; source: …
- Ki [12]: 10.8 ± 1.55 nM
- Ki [13]: 19.8 ± 1.82 nM
